# Measurements from ChEMBL document CHEMBL1158285, “Constituents from the stem wood of Euphorbia quinquecostata with phorbol dibutyrate receptor-binding inhibitory activity” (J Nat Prod, 1996).
# The source made the active and inactive calls. The calls are words filed in the database; no cut-off is given here.
# Molecular target: not listed separately
# Assay: (§1) Displacement of [3H]PDBu from PKC in calf brain homogenate
# Type: tissue-based, Bos taurus
row,Structure (SMILES),IC50
1,C=C1C[C@@]23CC[C@@H]4C(C)(C)C(=O)CC[C@@]4(C)[C@@H]2C[C@@H]1[C@H](O)C3=O,> 630 µM
2,CC1(C)C(=O)CC[C@]2(C)[C@@H]1CC[C@@]13CC[C@@H](C[C@H]12)[C@](O)(CO)C3,66 µM
3,CC1(C)[C@H](O)CC[C@]2(C)[C@@H]1CC[C@@]13CC[C@@H](C[C@H]12)[C@](O)(CO)C3,73 µM
4,CCCCCCCCCCCCCCCC(=O)OCC1=C[C@@H]2C(=O)[C@]3(C=C(C)[C@H](OC(C)=O)[C@@]3(O)[C@@H]1OC(C)=O)[C@H](C)C[C@@H]1[C@H]2[C@]1(C)COC(C)=O,> 275 µM

# Results, then the compound that gave them:
row,IC50,Structure (SMILES)
1,0.023 µM,CCCCCCCCCCCCCCCC(=O)OCC1=C[C@@H]2C(=O)[C@]3(C=C(C)[C@H](O)[C@@]3(O)[C@@H]1O)[C@H](C)C[C@@H]1[C@H]2[C@]1(C)CO
2,5.3 µM,CCCCCCCCCCCCCCCC(=O)OCC1=C[C@@H]2C(=O)[C@]3(C=C(C)[C@H](O)[C@@]3(O)[C@@H]1O)[C@H](C)C[C@@H]1[C@H]2C1(C)C

# Species: Bos taurus
# Assay: as §1
# Type: tissue-based
row,Activity,Structure (SMILES)
1,inactive,COc1cc(OC)c(C(=O)CO)c(O)c1C
